# Measurements reported in ChEMBL document CHEMBL4177526, “Discovery and structure activity relationship of the first potent cryptosporidium FIKK kinase inhibitor” (Bioorg Med Chem, 2017).
# What was measured:
# [1] = molecular target: Glycogen synthase kinase-3 beta (Homo sapiens) (UniProt P49841); assay: Inhibition of human GSK3beta (2 to 420 residues) assessed as residual activity at 500 nM in presence of 33P-ATP by filter binding assay relative to control
# [2] = molecular target: RAC-beta serine/threonine-protein kinase (Homo sapiens) (UniProt P31751); assay: Inhibition of human PKBbeta (120 to 481 residues) assessed as residual activity at 500 nM in presence of 33P-ATP by filter binding assay relative to control
# [3] = molecular target: Serine/threonine-protein kinase Nek2 (Homo sapiens) (UniProt P51955); assay: Inhibition of human NEK2A (1 to 445 residues) assessed as residual activity at 500 nM in presence of 33P-ATP by filter binding assay relative to control
# Chain of Serine/threonine-protein kinase Nek2 (Homo sapiens) (P51955 whole entry, the tested form may be a part): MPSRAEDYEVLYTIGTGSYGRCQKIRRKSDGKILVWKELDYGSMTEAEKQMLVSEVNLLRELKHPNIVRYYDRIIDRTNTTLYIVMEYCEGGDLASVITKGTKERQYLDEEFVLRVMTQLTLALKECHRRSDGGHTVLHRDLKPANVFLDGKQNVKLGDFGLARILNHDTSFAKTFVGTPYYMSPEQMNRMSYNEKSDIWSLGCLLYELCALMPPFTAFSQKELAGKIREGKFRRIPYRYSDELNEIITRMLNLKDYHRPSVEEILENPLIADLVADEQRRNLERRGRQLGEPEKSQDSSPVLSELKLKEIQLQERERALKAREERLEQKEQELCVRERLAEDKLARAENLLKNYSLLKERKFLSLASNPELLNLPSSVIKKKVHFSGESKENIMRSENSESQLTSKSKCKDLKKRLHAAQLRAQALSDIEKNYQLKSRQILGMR
# [4] = molecular target: Maternal embryonic leucine zipper kinase (Homo sapiens) (UniProt Q14680); assay: Inhibition of human MELK (2 to 651 residues) assessed as residual activity at 500 nM in presence of 33P-ATP by filter binding assay relative to control
# [5] = molecular target: Interleukin-1 receptor-associated kinase 1 (Homo sapiens) (UniProt P51617); assay: Inhibition of human IRAK1 (1 to 712 residues) assessed as residual activity at 500 nM in presence of 33P-ATP by filter binding assay relative to control
# [6] = molecular target: Homeodomain-interacting protein kinase 1 (Homo sapiens) (UniProt Q86Z02); assay: Inhibition of human HIPK1 (158 to 555 residues) assessed as residual activity at 500 nM in presence of 33P-ATP by filter binding assay relative to control
# [7] = molecular target: Mitogen-activated protein kinase 11 (Homo sapiens) (UniProt Q15759); assay: Inhibition of human p38beta (1 to 364 residues) assessed as residual activity at 500 nM in presence of 33P-ATP by filter binding assay relative to control
# [8] = molecular target: Receptor tyrosine-protein kinase erbB-4 (Homo sapiens) (UniProt Q15303); assay: Inhibition of human HER4 (706 to 991 residues) assessed as residual activity at 500 nM in presence of 33P-ATP by filter binding assay relative to control
# [9] = test system: TGF-beta receptor type-1 (Homo sapiens), P36897 [T204D]; assay: Inhibition of human TGFbetaR1 T204D mutant (200 to 501 residues) assessed as residual activity at 500 nM in presence of 33P-ATP by filter binding assay relative to control
# Chain of TGF-beta receptor type-1 (Homo sapiens), P36897 [T204D] (P36897 whole entry T204D, the tested form may be a part): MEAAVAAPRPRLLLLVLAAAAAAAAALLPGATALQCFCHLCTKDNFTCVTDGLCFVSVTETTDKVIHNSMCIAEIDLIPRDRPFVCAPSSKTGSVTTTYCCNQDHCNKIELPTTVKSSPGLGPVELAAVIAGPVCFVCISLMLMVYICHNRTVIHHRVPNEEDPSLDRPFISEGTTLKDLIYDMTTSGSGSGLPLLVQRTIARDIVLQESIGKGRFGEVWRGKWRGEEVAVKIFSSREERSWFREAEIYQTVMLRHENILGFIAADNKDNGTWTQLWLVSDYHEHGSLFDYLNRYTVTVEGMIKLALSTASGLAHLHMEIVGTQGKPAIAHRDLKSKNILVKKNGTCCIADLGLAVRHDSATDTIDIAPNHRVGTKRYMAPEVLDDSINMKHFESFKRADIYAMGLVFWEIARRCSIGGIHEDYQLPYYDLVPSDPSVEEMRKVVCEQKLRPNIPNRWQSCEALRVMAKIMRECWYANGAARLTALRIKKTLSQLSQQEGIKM
# [10] = molecular target: serine/threonine-protein kinase D1 (Homo sapiens) (UniProt Q15139); assay: Inhibition of human PKD1 (2 to 912 residues) assessed as residual activity at 500 nM in presence of 33P-ATP by filter binding assay relative to control
# [11] = molecular target: Dual specificity testis-specific protein kinase 1 (Homo sapiens) (UniProt Q15569); assay: Inhibition of human TESK1 (1 to 345 residues) assessed as residual activity at 500 nM in presence of 33P-ATP by filter binding assay relative to control
# Chain of Dual specificity testis-specific protein kinase 1 (Homo sapiens) (Q15569 whole entry, looked up, the tested form may be a part): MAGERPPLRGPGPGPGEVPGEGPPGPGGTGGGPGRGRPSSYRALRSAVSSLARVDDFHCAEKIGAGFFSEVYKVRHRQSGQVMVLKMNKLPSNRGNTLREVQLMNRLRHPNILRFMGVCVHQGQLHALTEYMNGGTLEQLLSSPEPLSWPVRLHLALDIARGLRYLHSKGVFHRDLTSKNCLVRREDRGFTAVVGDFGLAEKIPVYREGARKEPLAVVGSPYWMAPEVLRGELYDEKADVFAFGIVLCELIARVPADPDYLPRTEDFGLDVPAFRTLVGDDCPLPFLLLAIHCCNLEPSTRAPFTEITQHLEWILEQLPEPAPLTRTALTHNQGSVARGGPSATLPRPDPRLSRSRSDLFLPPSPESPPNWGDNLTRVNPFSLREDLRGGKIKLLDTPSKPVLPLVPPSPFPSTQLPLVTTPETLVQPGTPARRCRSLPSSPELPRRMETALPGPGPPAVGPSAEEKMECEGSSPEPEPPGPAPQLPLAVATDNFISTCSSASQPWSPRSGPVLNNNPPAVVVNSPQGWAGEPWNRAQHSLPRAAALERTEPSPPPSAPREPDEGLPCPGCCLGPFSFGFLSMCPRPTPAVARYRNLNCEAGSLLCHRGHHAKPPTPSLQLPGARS
# [12] = molecular target: Dual specificity mitogen-activated protein kinase kinase 2 (Homo sapiens) (UniProt P36507); assay: Inhibition of human MKK2 (2 to 400 residues) assessed as residual activity at 500 nM in presence of 33P-ATP by filter binding assay relative to control
# Chain of Dual specificity mitogen-activated protein kinase kinase 2 (Homo sapiens) (P36507 whole entry, the tested form may be a part): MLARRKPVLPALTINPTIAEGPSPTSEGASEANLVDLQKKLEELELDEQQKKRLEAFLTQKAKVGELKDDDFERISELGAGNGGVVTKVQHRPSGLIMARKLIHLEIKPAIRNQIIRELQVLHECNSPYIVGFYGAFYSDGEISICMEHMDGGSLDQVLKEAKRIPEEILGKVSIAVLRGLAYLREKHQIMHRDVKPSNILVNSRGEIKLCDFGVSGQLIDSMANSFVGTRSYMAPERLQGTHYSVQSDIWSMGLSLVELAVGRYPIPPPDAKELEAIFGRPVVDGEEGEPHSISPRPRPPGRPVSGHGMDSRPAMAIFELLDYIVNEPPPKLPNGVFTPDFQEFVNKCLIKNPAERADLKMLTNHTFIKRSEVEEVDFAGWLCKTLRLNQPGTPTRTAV
# [13] = molecular target: Mitogen-activated protein kinase 12 (Homo sapiens) (UniProt P53778); assay: Inhibition of human p38gamma (1 to 367 residues) assessed as residual activity at 500 nM in presence of 33P-ATP by filter binding assay relative to control
# [14] = molecular target: Mitogen-activated protein kinase 1 (Homo sapiens) (UniProt P28482); assay: Inhibition of human ERK2 (2 to 360 residues) assessed as residual activity at 500 nM in presence of 33P-ATP by filter binding assay relative to control
# [15] = molecular target: Insulin receptor (Homo sapiens) (UniProt P06213); assay: Inhibition of human IR (1001 to 1382 residues) assessed as residual activity at 500 nM in presence of 33P-ATP by filter binding assay relative to control
# [16] = molecular target: Mitogen-activated protein kinase 8 (Homo sapiens) (UniProt P45983); assay: Inhibition of human JNK1 (1 to 384 residues) assessed as residual activity at 500 nM in presence of 33P-ATP by filter binding assay relative to control
# Chain of Mitogen-activated protein kinase 8 (Homo sapiens) (P45983 whole entry, the tested form may be a part): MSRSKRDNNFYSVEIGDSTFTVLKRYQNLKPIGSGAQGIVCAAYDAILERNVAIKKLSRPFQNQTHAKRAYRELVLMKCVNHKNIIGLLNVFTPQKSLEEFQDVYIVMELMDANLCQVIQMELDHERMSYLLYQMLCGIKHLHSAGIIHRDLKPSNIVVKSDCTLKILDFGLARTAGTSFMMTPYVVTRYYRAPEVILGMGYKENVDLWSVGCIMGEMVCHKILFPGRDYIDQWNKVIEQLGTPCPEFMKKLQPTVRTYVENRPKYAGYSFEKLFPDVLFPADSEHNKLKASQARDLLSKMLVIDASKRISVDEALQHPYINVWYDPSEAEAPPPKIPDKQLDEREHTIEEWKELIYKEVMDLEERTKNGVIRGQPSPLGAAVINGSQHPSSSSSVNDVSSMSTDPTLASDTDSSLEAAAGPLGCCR
# [17] = molecular target: Interleukin-1 receptor-associated kinase 4 (Homo sapiens) (UniProt Q9NWZ3); assay: Inhibition of human IRAK4 (14 to 460 residues) assessed as residual activity at 500 nM in presence of 33P-ATP by filter binding assay relative to control
# [18] = molecular target: Serine/threonine-protein kinase ULK2 (Homo sapiens) (UniProt Q8IYT8); assay: Inhibition of human ULK2 (1 to 1036 residues) assessed as residual activity at 500 nM in presence of 33P-ATP by filter binding assay relative to control
# [19] = molecular target: Serine/threonine-protein kinase PLK1 (Homo sapiens) (UniProt P53350); assay: Inhibition of human PLK1 (1 to 603 residues) assessed as residual activity at 500 nM in presence of 33P-ATP by filter binding assay relative to control
# [20] = molecular target: Proto-oncogene tyrosine-protein kinase LCK (Mus musculus) (UniProt P06240); assay: Inhibition of mouse LCK (2 to 509 residues) assessed as residual activity at 500 nM in presence of 33P-ATP by filter binding assay relative to control
# [21] = Permeability in human Caco2 cells; type: ADME, cell-based; conditions: Caco-2, read-out: permeability
# [22] = Ratio of EC50 for antiparasitic activity against Cryptosporidium parvum Iowa oocysts infected in human HCT8 cells to IC50 for recombinant Cryptosporidium parvum FIKK; type: functional, cell-based
# [23] = molecular target: Receptor-interacting serine/threonine-protein kinase 2 (Homo sapiens) (UniProt O43353); assay: Inhibition of human RIPK2 (2 to 311 residues) assessed as residual activity at 500 nM in presence of 33P-ATP by filter binding assay relative to control
# Chain of Receptor-interacting serine/threonine-protein kinase 2 (Homo sapiens) (O43353 whole entry, the tested form may be a part): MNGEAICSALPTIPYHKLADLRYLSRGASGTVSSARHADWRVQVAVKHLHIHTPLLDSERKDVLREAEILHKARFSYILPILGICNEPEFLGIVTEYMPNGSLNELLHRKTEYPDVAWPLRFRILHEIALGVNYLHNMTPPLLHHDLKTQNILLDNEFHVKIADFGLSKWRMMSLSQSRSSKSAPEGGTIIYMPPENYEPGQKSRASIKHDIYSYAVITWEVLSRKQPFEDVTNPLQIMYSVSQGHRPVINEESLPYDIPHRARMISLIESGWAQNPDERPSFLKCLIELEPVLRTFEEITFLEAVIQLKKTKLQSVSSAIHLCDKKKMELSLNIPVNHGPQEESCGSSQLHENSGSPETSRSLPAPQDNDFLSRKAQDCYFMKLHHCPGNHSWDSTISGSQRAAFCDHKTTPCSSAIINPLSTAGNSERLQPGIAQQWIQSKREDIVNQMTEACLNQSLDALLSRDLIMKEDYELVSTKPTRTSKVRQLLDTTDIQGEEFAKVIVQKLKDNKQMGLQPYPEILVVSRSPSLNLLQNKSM
# [24] = molecular target: Serine/threonine-protein kinase PAK 5 (Homo sapiens) (UniProt Q9P286); assay: Inhibition of human PAK5 (2 to 719 residues) assessed as residual activity at 500 nM in presence of 33P-ATP by filter binding assay relative to control
# [25] = molecular target: Ephrin type-A receptor 2 (Homo sapiens) (UniProt P29317); assay: Inhibition of human EPHA2 (591 to 976 residues) assessed as residual activity at 500 nM in presence of 33P-ATP by filter binding assay relative to control
# [26] = molecular target: Serine/threonine-protein kinase SIK3 (Homo sapiens) (UniProt Q9Y2K2); assay: Inhibition of human SIK3 (2 to 1369 residues) assessed as residual activity at 500 nM in presence of 33P-ATP by filter binding assay relative to control
# Chain of Serine/threonine-protein kinase SIK3 (Homo sapiens) (Q9Y2K2 whole entry, looked up, the tested form may be a part): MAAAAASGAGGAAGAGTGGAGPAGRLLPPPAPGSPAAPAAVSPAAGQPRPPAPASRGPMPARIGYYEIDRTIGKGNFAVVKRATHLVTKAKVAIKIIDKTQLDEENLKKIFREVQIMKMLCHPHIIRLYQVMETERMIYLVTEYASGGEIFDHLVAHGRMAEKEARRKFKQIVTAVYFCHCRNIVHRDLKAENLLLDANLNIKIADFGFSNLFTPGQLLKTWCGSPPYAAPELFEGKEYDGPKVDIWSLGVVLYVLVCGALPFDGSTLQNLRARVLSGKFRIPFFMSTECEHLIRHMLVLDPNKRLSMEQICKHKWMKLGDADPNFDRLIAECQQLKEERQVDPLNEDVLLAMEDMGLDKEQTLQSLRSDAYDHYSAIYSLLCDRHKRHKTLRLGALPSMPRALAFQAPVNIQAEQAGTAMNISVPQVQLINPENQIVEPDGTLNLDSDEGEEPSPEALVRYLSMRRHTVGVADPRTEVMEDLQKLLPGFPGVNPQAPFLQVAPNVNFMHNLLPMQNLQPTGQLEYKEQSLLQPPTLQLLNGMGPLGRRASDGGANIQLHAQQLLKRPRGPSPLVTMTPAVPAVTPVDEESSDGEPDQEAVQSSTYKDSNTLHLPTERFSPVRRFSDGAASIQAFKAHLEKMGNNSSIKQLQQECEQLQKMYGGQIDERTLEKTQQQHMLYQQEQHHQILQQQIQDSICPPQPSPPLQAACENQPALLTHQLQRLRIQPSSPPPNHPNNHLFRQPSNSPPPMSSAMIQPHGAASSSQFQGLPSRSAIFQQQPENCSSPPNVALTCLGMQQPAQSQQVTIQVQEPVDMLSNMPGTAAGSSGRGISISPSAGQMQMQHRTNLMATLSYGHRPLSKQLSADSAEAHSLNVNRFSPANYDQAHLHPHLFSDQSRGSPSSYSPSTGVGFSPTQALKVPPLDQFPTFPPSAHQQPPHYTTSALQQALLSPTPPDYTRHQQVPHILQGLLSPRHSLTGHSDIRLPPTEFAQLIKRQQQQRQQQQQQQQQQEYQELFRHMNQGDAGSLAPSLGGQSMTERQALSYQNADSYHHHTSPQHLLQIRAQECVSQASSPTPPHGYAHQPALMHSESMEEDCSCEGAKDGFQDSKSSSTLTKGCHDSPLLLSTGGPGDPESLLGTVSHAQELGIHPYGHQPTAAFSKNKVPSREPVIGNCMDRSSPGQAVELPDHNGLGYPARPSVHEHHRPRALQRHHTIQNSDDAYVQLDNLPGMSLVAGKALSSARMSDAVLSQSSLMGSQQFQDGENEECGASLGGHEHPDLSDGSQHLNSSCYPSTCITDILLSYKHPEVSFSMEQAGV
# [27] = molecular target: Protein-tyrosine kinase 6 (Homo sapiens) (UniProt Q13882); assay: Inhibition of human BRK (1 to 451 residues) assessed as residual activity at 500 nM in presence of 33P-ATP by filter binding assay relative to control
# Chain of Protein-tyrosine kinase 6 (Homo sapiens) (Q13882 whole entry, looked up, the tested form may be a part): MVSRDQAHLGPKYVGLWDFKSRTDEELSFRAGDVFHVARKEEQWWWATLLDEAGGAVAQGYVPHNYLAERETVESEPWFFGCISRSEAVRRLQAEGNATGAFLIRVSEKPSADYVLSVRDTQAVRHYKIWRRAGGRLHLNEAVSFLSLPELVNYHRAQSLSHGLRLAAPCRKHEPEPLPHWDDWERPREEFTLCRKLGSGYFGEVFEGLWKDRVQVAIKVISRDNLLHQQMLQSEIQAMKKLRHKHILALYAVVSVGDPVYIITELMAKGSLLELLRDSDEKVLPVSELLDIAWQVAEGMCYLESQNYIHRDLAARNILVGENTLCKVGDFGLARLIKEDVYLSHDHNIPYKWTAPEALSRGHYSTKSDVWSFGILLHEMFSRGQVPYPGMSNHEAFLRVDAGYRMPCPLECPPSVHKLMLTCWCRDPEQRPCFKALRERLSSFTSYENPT
smiles,measurement,setting,value
Cc1cccc(-c2nc(N)sc2-c2ccc3ncccc3n2)c1,Activity,[1],112%
same,Activity,[2],127%
same,Activity,[3],102%
same,Activity,[4],91%
same,Activity,[5],109%
same,Activity,[6],106%
same,Activity,[7],80%
same,Activity,[8],60%
same,Activity,[9],14%
same,Activity,[10],9%
same,Activity,[11],87%
same,Activity,[12],112%
same,Activity,[13],116%
same,Activity,[14],80%
same,Activity,[15],115%
same,Activity,[16],134%
same,Activity,[17],110%
same,Activity,[18],118%
same,Activity,[19],107%
same,Activity,[20],85%
same,Papp,[21],11 ×10⁻⁶ cm/s
same,Ratio,[22],12800
same,Activity,[23],30%
same,Activity,[24],107%
same,Activity,[25],99%
same,Activity,[26],86%
same,Activity,[27],74%
